Assay results as given in patent US20030157084A1, “Methods for preparing purified prostaglandin E synthase” (priority 2001, published 2003).
Entries after “also recorded” stand apart in the source; their conditions may differ.

T1: purified His6-hPGES (Homo sapiens, UniProt O14684)
T1 sequence (O14684 1-152): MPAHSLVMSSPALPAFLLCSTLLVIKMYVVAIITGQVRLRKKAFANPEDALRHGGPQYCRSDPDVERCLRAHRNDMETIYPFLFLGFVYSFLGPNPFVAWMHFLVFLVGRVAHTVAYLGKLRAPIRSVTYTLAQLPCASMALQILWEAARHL


Tests used:
purified His6-hPGES [1] = molecular target: T1, purified His6-hPGES; test: Glutathione transferase (GST) activity of purified His6-hPGES with CDNB; format: biochemical; parameters: made in house; host or cells: E. coli BL21(DE3) with pLysSL; settings: purified His6-hPGES incubated with LTA4
Experimental: Glutathione transferase (GST) activity (glutathione conjugation) was assayed with the classical model substrate for GSTs, p-chloro-2,4-dinitrobenzene (CDNB). […] Formation of product was detected at 340 nm (molar absorption coefficient for the product, GS-DNB, is 9.6 mM^−1 cm^−1).

purified His6-hPGES [2] = molecular target: T1, purified His6-hPGES; test: LTC4 synthase activity of purified His6-hPGES with LTA4; format: biochemical; parameters: made in house; host or cells: E. coli BL21(DE3) with pLysSL; settings: 37 ° C.; up to 100 μg/ml enzyme, 30 μM LTA4, 10 mM GSH, pH 7.4
[3] = Kinetic properties of other enzymes with PGE synthase activity (literature); format: biochemical; settings: cytosolic PGES versus His6-hPGES
[4] = 24° C.; Tanioka et al. (2000); cited from earlier work

Row | GST activity after incubation of the enzyme with LTA4 (purified His6-hPGES [1]) | Molecule | Specific activity (LTC4 synthase activity) (purified His6-hPGES [2]) | Vmax compared with specific activity of purified His6-hPGES, times lower [3] | published Vmax [4] [µmol/min/mg]
1 | no GST activity could be detected | CCCCC/C=C\C\C=C/C=C/C=C/[C@@H]1O[C@H]1CCCC(=O)O [LTA4, leukotriene (LT) A4] | No activity above background could be detected; also recorded: Not detectable above background |  | 
2 |  | Cytosolic PGES LPS-induced: enzyme with PGE synthase activity, Rat, brain (Tanioka et al. 2000); recently identified cytosolic PGES (protein, UniProt P83868 1-160, looked up) Prostaglandin E synthase 3: MQPASAKWYDRRDYVFIEFCVEDSKDVNVNFEKSKLTFSCLGGSDNFKHLNEIDLFHCIDPNDSKHKRTDRSILCCLRKGESGQSWPRLTKERAKLNWLSVDFNNWKDWEDDSDEDMSNFDRFSEMMDHMGGDEDVDLPEVDGADDDSQDSDDEKMPDLE |  | about 1,000 times | 0.19
